In PMC12036814 (Angewandte Chemie (International Ed. in English), 2025):
Where two headings read alike, the source gives them in different places.

Experiments:
FAM171A2 = target: T1, FAM171A2 (Homo sapiens, UniProt A8MVW0); assay: Thermal protein profiling (TPP) in intact HEK293 cells; assay type: cell-based; details: 1 h
T1 construct: endogenous in cells; host or cells: HEK293
Procedure: (§1) incubated in a thermoshaker (600 rpm, 16 h, 37 °C). The digest was stopped by adding 10 μL formic
(§2) acid (FA) and vortexing followed by centrifugation (12,000 ×g, 3 min, room temperature). 50 mg
(§3) SepPak C18 columns (Waters, Milford, USA, Cat# WAT054960) were equilibrated by gravity flow two
(§4) times with 1 mL acetonitrile and three times with 1 mL aqueous 0.1% trifluoroacetic acid (TFA) solution.
(§5) Subsequently, the samples were loaded by gravity flow, washed three times with 1 mL aqueous 0.1%
(§6) TFA solution and once with 0.5 mL aqueous 0.5% formic acid (F A) solution. Elution of peptides into
(§7) new 2.0 mL Protein LoBind Eppendorf tubes was performed by two times addition of 250 μL elution
(§8) buffer (80% acetonitrile, 0.5% FA) by gravity flow followed by 250 μL elution buffer by vacuum flow
(§9) until all liquid was eluted from the column. The eluates were lyophilized. Before MS measurement the
(§10) (brief centrifugation after each step).
(§11) Thermal protein profiling (TPP)
(§12) The experiment was performed similarly to TPP-TR experiments described by Franken et al. with minor
(§13) modifications.5 HEK293 cells were grown in 8 T175 flasks to approx. 80-90% confluency. Per replicate
(§14) volume of 0.1 N HCl as vehicle control. Per condition two replicates were used, leading to a total of 8
(§15) T175 flasks. The cells were washed with PBS, detached with accutase, the two flask per replicate
(§16) condition combined and the cells pelletized (500 ×g, 3 min, r.t.). The medium was removed and each
(§17) pellet (Cipro #1, Cipro #2, Ctrl. #1, Ctrl #2) washed twice with cold PBS. Each pellet was resuspended
(§18) depending on the sample. The cell suspension of each sample was distributed into 10 PCR tubes
(§19) (100 µL per tube), resulting in 10 stripes á 4 tubes (2×2 conditions, 10 temperature points). The PCR
(§20) tubes were subjected to the temperature gradient using a PCR cycler.
(§21) limitations, two separate programs had to be run to cover the desired temperature range (see
(§22) Table S4). The PCR tubes were heat-treated according to the two programs for 3 min and directly snap
(§23) frozen in liquid nitrogen.
(§24) manufacturer instructions.

MAIP1 = target: T2, MAIP1 (Homo sapiens, UniProt Q8WWC4); assay: as above; assay type: cell-based; details: 1 h
T2 construct: endogenous in cells; host or cells: HEK293
T2 sequence (Q8WWC4 97-291): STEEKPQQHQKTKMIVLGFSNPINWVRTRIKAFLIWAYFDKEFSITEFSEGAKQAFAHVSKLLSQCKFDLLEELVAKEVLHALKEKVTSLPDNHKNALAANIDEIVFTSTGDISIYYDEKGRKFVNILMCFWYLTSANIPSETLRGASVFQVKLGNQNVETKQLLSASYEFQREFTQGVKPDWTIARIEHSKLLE
Procedure: as §1, §2, §3, §4, §5, §6, §7, §8, §9, §10, §11, §12, §13, §14, §15, §16, §17, §18, §19, §20, §21, §22, §23, §24

RAP1A = target: T3, RAP1A (Homo sapiens, UniProt P62834); assay: as above; assay type: cell-based; details: 1 h
T3 construct: endogenous in cells; host or cells: HEK293
T3 sequence (P62834 1-184): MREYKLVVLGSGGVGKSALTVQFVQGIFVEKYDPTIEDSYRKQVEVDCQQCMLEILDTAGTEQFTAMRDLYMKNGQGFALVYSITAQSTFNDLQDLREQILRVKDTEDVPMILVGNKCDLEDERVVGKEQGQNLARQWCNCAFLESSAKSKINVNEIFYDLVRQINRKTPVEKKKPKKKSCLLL
Procedure: as §1, §2, §3, §4, §5, §6, §7, §8, §9, §10, §11, §12, §13, §14, §15, §16, §17, §18, §19, §20, §21, §22, §23, §24

ULK3 = target: T4, ULK3 (Homo sapiens, UniProt Q6PHR2); assay: as above; assay type: cell-based; details: 1 h
T4 construct: endogenous in cells; host or cells: HEK293
T4 sequence (Q6PHR2 1-472): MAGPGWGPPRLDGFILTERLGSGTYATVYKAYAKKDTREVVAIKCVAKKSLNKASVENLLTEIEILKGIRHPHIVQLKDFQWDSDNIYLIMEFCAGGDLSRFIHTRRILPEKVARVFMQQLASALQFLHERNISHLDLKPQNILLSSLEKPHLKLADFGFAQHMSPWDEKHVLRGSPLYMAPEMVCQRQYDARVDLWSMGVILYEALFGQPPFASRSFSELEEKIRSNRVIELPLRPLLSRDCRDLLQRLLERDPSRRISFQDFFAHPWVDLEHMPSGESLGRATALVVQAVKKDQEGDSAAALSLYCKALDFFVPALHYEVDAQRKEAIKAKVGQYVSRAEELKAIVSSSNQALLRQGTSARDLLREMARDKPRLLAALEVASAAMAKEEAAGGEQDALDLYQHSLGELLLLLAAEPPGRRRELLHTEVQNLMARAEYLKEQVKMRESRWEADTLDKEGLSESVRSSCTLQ
Procedure: as §1, §2, §3, §4, §5, §6, §7, §8, §9, §10, §11, §12, §13, §14, §15, §16, §17, §18, §19, §20, §21, §22, §23, §24

NUDT1 = NUDT1 (Homo sapiens, UniProt P36639); assay: NUDT1 in vitro activity assay (malachite green); assay type: biochemical; set-up: Full length NUDT1 gene synthesis; N-terminal His tag with thrombin site from pET28a(+) (NdeI/XhoI) (N, cleaved yes); made in house; host or cells: E. coli BL21 (DE3); details: 100 μM

Work on `O=C(O)c1cn(C2CC2)c2cc(N3CCNCC3)c(F)cc2c1=O` [Ciprofloxacin] yielded a ΔTm at 70 µM (FAM171A2; read-out: ΔTm Rep. 1) of 5.82 °C, a ΔTm at 70 µM (FAM171A2; read-out: ΔTm Rep. 2) of 3.92 °C and a ΔTm at 70 µM (MAIP1; read-out: ΔTm Rep. 1) of 2.28 °C. It also gave a ΔTm at 70 µM (MAIP1; read-out: ΔTm Rep. 2) of 3.73 °C, a ΔTm at 70 µM (RAP1A; read-out: ΔTm Rep. 1) of 1.79 °C and a ΔTm at 70 µM (RAP1A; read-out: ΔTm Rep. 2) of 2.89 °C. The ΔTm at 70 µM (ULK3; read-out: ΔTm Rep. 1) was 1.72 °C, the ΔTm at 70 µM (ULK3; read-out: ΔTm Rep. 2) was 4.39 °C and the “NUDT1 in vitro activity, inhibition” value (NUDT1) was “significant partial inhibition”.
